The record followed here is patent US20250032581A1, “COMPOSITIONS AND ARTICLES COMPRISING AN ADNF POLYPEPTIDE” (RAMOT AT TEL-AVIV UNIVERSITY LTD., priority 2021, published 2025).

Test [1] relates to Tyr mice. In words: Developmental milestone assessment, weight and length of Tyr mouse pups. Type of test: in vivo. As for the experimental part: Animals—Animals were housed under a 12-hour light/dark cycle, with food and water ad-libitum. Mouse pups were subcutaneously administrated with NAP [having an amino acid sequence NAPVSIPQ (SEQ ID NO: 2), 25 μg NAP/1 ml saline] as described (8, 12). At 21 days of age mice were administered daily intranasal NAP in vehicle solution (“DD”—7.5 mg/ml of NaCl, 1.7 mg/ml of citric acid, 3 mg/ml of disodium phosphate dihydrate, and 0.2 mg/ml of 50% benzalkonium chloride solution) (0.5 μg NAP/5p1 DD) (8, 9, 12, and U.S. Pat. No. 10,912,819 to Gozes). These mice continued to behavioral analysis as described hereinbelow. The noninvasive intranasal route was chosen as these experiments required daily handling and administration. Age (weeks) of mice during behavioral experiments (mean±SEM) was as follows: Catwalk—9.23±0.15, grooming—10±0.15, social approach—10.5±0.12, odor-discrimination—12.12±0.13, hanging-wire—13±0.14, hotplate—13.18±0.13. Group size was determined following previous experiments (12). Pups were randomly allocated to either the NAP or DD group according to sex and genotype. All procedures involving animals were conducted under the supervision and approval of the institutional animal care and use committee of Tel Aviv University and the Israeli Ministry of Health.
Developmental milestone assessment and fostering—This experiment included animals from 16 litters in 2 experimental batches. It was performed as previously described (12) with slight modifications. Experimenters were blinded to sex and genotype during experimental procedures. Sexes were grouped if no statistically significant sex differences were discovered.
Additional behavioral assessments— • Fostering: To enable daily handling necessary for developmental milestone assessment and drug treatment, Tyr pups were fostered by ICR females which are known to be excellent dams. Tyr pups were moved after birth to an ICR female mouse who gave birth up to 48 hours prior. ICR litter was culled according to the number of Tyr pups that were added. One day afterwards the remaining ICR pups were euthanized so only Tyr pups were left in the litter. • Pup litter distribution analysis: The genotyping results at p1 after placement with the foster mother was used for this measurement. […] The same day pups were randomized to either NAP or Saline treatment groups according to genotype and sex results and developmental milestone assessment was performed from p1 to p21. As animal randomization ended up with unequal male/female ratios for certain groups and no statistical differences were found between the sexes in any of the 4 treatment groups (T test), the sexes […], [That is except for eye opening, where a significant difference was observed between the sexes in the Tyr group (P=0.047, no significance in the other three treatment groups)]. Pup paws were tattooed using a 31-gauge needle and tattoo ink (Ketchum Manufacturing Co., catalog 329AA) for identification on P1 and, until P21, underwent daily measurements for length and weight and observation for eye opening. Pups were injected daily with NAP, 1 hour prior to the tests as previously described^1.
Briefly, for ear twitch reflex, a cotton tip was gently brushed against the tip of the ear three times, between postnatal days 7-15 or until the pup responded correctly for two consecutive days. For air righting reflex, the pup was held up-side down and released ˜10.5 cm above the cage, containing 5 cm of shavings. The test was performed between postnatal days 8-21 or until the pup landed on the shavings with all four paws, for two consecutive days. For surface righting reflex, pups were placed on their backs on a level surface, the test was performed between postnatal days 1-13 until the pups was able to right itself with all four paws on the surface in under a second for two consecutive days. For eye opening, mice were observed daily until both eyes were open (eyelids separated completely). […]

Test [2] concerns mice with the ASD-linked InsG3680 mutation (SHANK3). Description: Open field behavior in the SHANK3 mouse model. Conditions: intranasal NAP once daily, five days a week for a month. Type of test: in vivo. Here is the method: To this end, mice with the ASD-linked InsG3680 mutation were used. Two behavioral assessments were performed on make mice: • 1) Open field behavior attesting to anxiety and depression (Open field behavioral assessment technology was previously described, e.g.); and • 2) Social recognition behavior, related to autistic traits (the social recognition test was previously described, e.g..
This surprising finding is of importance as there is a psychiatric illness and regression in individuals with Phelan-McDermid syndrome.

Structures are written as SMILES.

As to `CC[C@H](C)[C@H](NC(=O)[C@H](CO)NC(=O)[C@@H](NC(=O)[C@@H]1CCCN1C(=O)[C@H](C)NC(=O)[C@@H](N)CC(N)=O)C(C)C)C(=O)N1CCC[C@H]1C(=O)N[C@@H](CCC(N)=O)C(=O)O` [NAP, NAPVSIPQ], in test [1] (Tyr mice, data not shown), the rooting reflex result is “induced rooting in Tyr mice”. In addition, the “surface-righting, first day of acquisition” value in test [1] (Tyr pups, daily s.c. NAP, WT 8.69±0.42, Tyr 10.14±0.36) came to 8.81 ± 0.33 days. In addition, in test [1] (Tyr pups, daily s.c. NAP, WT 12.96±0.28, Tyr 15.29±0.15), the “air-righting, first day of acquisition” value was 14.63 ± 0.38 days. Further, the body weight entry in test [1] (WT female mice, data not shown) is reported as “no effect observed on WT female mice”. For the same compound, the eye opening result in test [1] (WT females, data not shown) is “no NAP effect was observed in WT females”; in test [1] (female Tyr mice, Tyr 16±0.37, WT 14.93±0.43), 14.78 ± 0.46 days; in test [1] (males, data not shown) it was “No genotype/NAP effect was observed on males”. Moreover, the developmental milestones entry in test [1] (WT littermates, data not shown) is “no effect on WT littermates except for the cliff aversion response”. Moreover, the “open field: cumulative duration in the center” value in test [2] is “significantly increased by NAP treatment”.
